Source: patent US5426194A, “Isolation and structure of Halistatin 1” (Arizona Board of Regents, a body corporate acting on behalf …, priority 1993, dated 1995)
pIC50: −log10 of the molar value.

Experiments:
[1] = system: L1210 murine leukemia cells; assay: cytotoxicity in L1210 leukemia cells; assay type: cell-based
[2] = system: L1210 murine leukemia cells; assay: mitotic index at cytotoxic concentrations; assay type: cell-based; conditions: in words
tubulin [3] = assay: binding of radiolabeled vinblastine to tubulin
tubulin [4] = assay: radiolabeled GTP binding to tubulin (nucleotide exchange)
[5] = system: human tumor cell line panel; assay: NCI in vitro primary screen, pattern of differential growth inhibition / mean graph comparison; assay type: cell-based; conditions: computerized pattern-recognition analyses
Excerpt: Only two hundred years ago, many diseases ravaged humankind. Many of these diseases have been controlled or eradicated. In the development of the means to treat or control these diseases, work with the appropriate common experimental animals is of critical importance. With the various types of cancers, and with the HIV virus, such work is presently ongoing. The research for the treatment of various types of cancer is coordinated in the United States by the National Cancer Institute (NCI). NCI, as a government entity, has been charged with assisting all anti-cancer research. To establish whether a substance has anti-cancer activity, NCI has established a variety of protocols one of which involves testing the candidate substance against a cell line panel containing 60 human tumor cell lines. This protocol has been verified, and is generally accepted throughout the scientific community. This protocol and the established statistical means of evaluating the results obtained therefrom have been fully described in the literature See Principles & Practice of Oncology PPO Updates, Volume 3, Number 10, October 1989, by Michael R. Boyd, M.D., Ph.D. for an in depth description of the test protocol. […]

tubulin [6] = conditions: in words, shown previously; cited from earlier work
tubulin [7] = conditions: in words, shown previously; cited from earlier work; remark: listed apart in the source

SMILES: C=C1C[C@@H]2CC[C@@]34C[C@H]5O[C@H]6[C@@H](O3)[C@H]3O[C@H](CC[C@@H]3O[C@H]6[C@H]5O4)CC(=O)O[C@@H]3[C@@H](C)[C@@H]4O[C@@H]5C[C@]6(C[C@@H]7O[C@]8(C[C@H](C)[C@@H]9O[C@H]([C@@H](O)C[C@@H](O)CO)C[C@@H]9O8)C[C@H](C)[C@@H]7O6)O[C@@H]5C[C@@H]4O[C@H]3C[C@H]3O[C@@H](CC[C@@H]1O2)C[C@@H](C)C3=C [halichondrin B]
- pIC50 [1]: 9.70
- rise in the mitotic index [2]: caused a significant rise in the mitotic index
- inhibition of binding of radiolabeled vinblastine (tubulin [3]; 5 μM): 51%
- inhibition of binding of radiolabeled vinblastine (tubulin [3]; 10 μM): 73%
- inhibition of radiolabeled GTP binding to tubulin (tubulin [4]; 5 μM): 14%
- inhibition of radiolabeled GTP binding to tubulin (tubulin [4]; 10 μM): 18%
- correlation of mean graph profiles [5]: strongly correlated with each other and also with the profiles of a general class of tubulin-interactive antimitotics
- mode of inhibition of vinblastine binding to tubulin (tubulin [6]): noncompetitive inhibitor of the binding of radiolabeled vinblastine to tubulin
- inhibition of nucleotide exchange on tubulin (tubulin [7]): inhibit nucleotide exchange on tubulin

SMILES: C=C1C[C@@H]2CC[C@@]34C[C@H]5O[C@H]6[C@@H](O3)[C@H]3O[C@H](CC[C@@H]3O[C@H]6[C@H]5O4)CC(=O)O[C@@H]3[C@@H](C)[C@@H]4O[C@@H]5C[C@]6(C[C@@H]7O[C@]8(C[C@H](C)[C@@H]9O[C@@H]%10CC(C(O)CO)O[C@@H]%10C[C@@H]9O8)C[C@H](C)[C@@H]7O6)O[C@@H]5C[C@@H]4O[C@H]3C[C@H]3O[C@@H](CC[C@@H]1O2)C[C@@H](C)C3=C (stereo partly shown) [homohalichondrin B]
- correlation of mean graph profiles [5]: strongly correlated with each other and also with the profiles of a general class of tubulin-interactive antimitotics
